Results published in patent US9879020B2, “GABAA agonists and methods of using to control airway hyperresponsiveness and inflammation in asthma” (priority 2012, dated 2018).
Values joined by “and” are separate entries in the source; they are usually repeats but may differ in a detail not shown here. Equal entries are not always repeated. “Also recorded” adds a separate entry of the source. Where two headings read alike, the source gives them in different places.

Assays:
[1] = system: GABAAR containing single α-subunits; assay: Patch clamp assay of chloride-flux inward currents at GABAAR containing single α-subunits (FIG. 12); format: cell-based; settings: dose-response curves, α4 or α6 GABAAR compared to other α-subtypes
Excerpt: Selectivity is quantified by dose-response curves showing greater inward currents (i.e., agonist activity) by action of GABAAR bearing a4 or a6 compared to other α-subtypes.
Two compounds having selective activity bias for α4-GABAAR were identified (FIG. 12). Patch clamp assays were used to quantify chloride flux induced inward currents resulting from agonism of GABAAR containing single α-subunits.

murine tracheal rings = assay: Relaxation of acetylcholine-induced contraction in murine tracheal rings (wild type and GABAA α4 knockout), Example 13; settings: CMD-45 100 uM, 30 minutes, ACh ~EC50; wild type vs GABAA α4 knockout mice; p<0.01 vs vehicle
Excerpt: Adult male C57/B16 wild type mice or adult male mice globally deficient in the GABAA a4 subunit (from Dr. Gregg Homanics, University of Pittsburgh) were euthanized with an overdose of sodium pentobarbital. Tracheas were rapidly removed and placed in modified Krebs-Henseleit buffer of the following composition in mM: 115 NaCl, 2.5 KCl, 1.91 CaCl2, 2.46 MgSO4, 1.38 NaH2PO4, 25 NaHCO3, 5.56 D-glucose: pH 7.4 Connective tissue was removed under a dissecting microscope and tracheas were cut in half axially. One-half trachea was used in each chamber of a myograph bath (DMT: Ann Arbor, Mich.), one-half used for vehicle treatment and the other half used for drug (i.e. CMD-45) treatment. […] Tension was continuously digitally recorded using BioPac hardware connected to Acknowledge software. […] An ACh ˜EC50 was determined for each tracheal ring based on these dose response curves.
In relaxation studies, tracheal ring were contracted to the determined ˜EC50 and force was allowed to plateau. Single concentrations of vehicle (0.1% DMSO) or CMD-45 (100 uM) were added and continuous muscle force was measured over 30 minutes. The data are expressed as the percent of remaining tone at 30 minutes relative to the initial force achieved with the EC50 concentration of acetylcholine. […]

GP tracheal rings = assay: Direct relaxation of guinea pig tracheal rings contracted with TEA or substance P; settings: CM-D-45 200 um, 15 minutes
Experimental: Male Hartley guinea pigs (approximately 400 g) were anesthetized with intraperitoneal pentobarbital (100 mg/kg). Trachea were removed and dissected under a dissecting microscope into closed rings comprised of two cartilaginous segments. Epithelium was removed by gentle abrasion on the tracheal lumen with cotton. Tissues were placed into cold Krebs-Henseleit (KH) buffer (in mM: NaCl 118, KCl 5.6, CaCl2 0.5, MgSO4 0.24, NaH2PO4 1.3, NaHCO3 25, glucose 5.6, pH 7.4) containing indomethacin 10 uM (DMSO final concentration in organ baths of 0.01%) to block tone due to endogenous release of prostanoids. […]
To determine the direct relaxant effect of α4 subunit containing GABAA receptor activation using different contractile agonists, GP tracheal rings prepared according to Reference Example 3 were contracted with a single dose (10 mM) of TEA or (1 uM) substance P. Following a plateau in the generated muscle force, a single dose of CM-D-45 (200 um) or vehicle control (DMSO 0.1%) was added to the organ bath buffer and the percentage of relaxation achieved was assessed over 15 minutes in comparison to intra-experimental matched vehicle controls.

human Jurkat E6-1 cells = assay: Automated patch clamp (IonFlux) for potentiation of GABA, membrane polarization in Jurkat E6-1 cells; format: cell-based; settings: tested with 0.1 μM GABA; preliminary assay development studies
Experimental: Inserts show inward rectifying currents ([…]) at various doses. Compounds tested with 0.1 μM GABA. Curves show average of four determinations at indicated doses and standard deviations.
Both compounds were investigated using a CD4+ T-lymphocyte cell line (Jurkat E6-1) for potentiation of GABA using automated patch clamp (IonFlux). In contrast to manual patch clamp assays; this high throughput system enables dose dependent efficacy testing of more than 20 test conditions per day.

GABAA receptors [2] = assay: Whole cell voltage clamp electrophysiology (Fluxion microfluidic plate) of human airway smooth muscle cells; format: cell-based
Experimental: (§1) Human immortalized bronchial smooth muscle cell lines prepared as described were grown to confluence in M199 media (Gibco) containing 10% fetal bovine serum, 0.25 ng/ml epidermal growth factor, 1 ng/ml fibroblast growth factor, ITS supplement (1 mg/ml insulin, 0.55 mg/ml transferrin, 0.67 ug/ml sodium selenium) and antibiotics (100 units/ml penicillin G sodium, 100 μg/ml streptomycin sulfate, 0.25 μg/ml amphotericin B) in a humidified atmosphere of 5% CO2/95% air at 37° C. Twenty four hours prior to study, cells were fed with serum and growth factor free media.
On the day of the assay, human airway smooth muscle cells (prepared as described in Reference Examples 1 and 2) were released from collagen-coated plates with collagenase type IV (Sigma C5138; 500 units/ml). The cells were resuspended in external buffer solution (In mM: NaCl 147, MgCl2 2, CaCl2 2, HEPES 10, dextrose 10; pH 7.2, osmolarity 320 mOsm) and rocked at room temperature to allow cells to obtain a spherical shape. Approximately 1 million cells were centrifuged (300×g, 3 min), washed ×2 in external buffer, and loaded (final volume of 400 uL) into a Fluxion microfluidic plate with each experimental group representing an ordered arrangement of 20 cells in parallel whole cell configuration. Following generation of adequate cellular membrane seals (40-120 MΩ), whole cell recordings were obtained under voltage clamp conditions (−80 mV) to a dose response to THIP (0.3 uM-300 uM). In separate assays cells were also co-treated simultaneously with 20 uM gabazine (GABAA receptor antagonist) and 25 uM THIP. In addition, to confirm that THIP-induced currents were due to chloride efflux, in separate experiments the intracellualar buffer (in mM: MgCl2 4, EGTA 10, HEPES 10, CsCl 130, Mg-ATP 4, CsOH 10, pH 7.2, 290 mOsM) was modified by replacing […] CsCl with 140 Cs gluconate to inhibit the magnitude of the […] current at −80 mV.

[3] = system: Guinea pig (GP) tracheal rings; assay: Isoproterenol-mediated relaxation of acetylcholine-contracted guinea pig tracheal rings with α4 GABAA selective agonist; settings: for potentiation of isoproterenol-mediated relaxation: single dose 500 uM THIP or 200 uM taurine, acetylcholine pre-contracted; for EC50: Cavia porcellus, read-out: EC50 of isoproterenol relaxation concentration-response curve
GABAA receptors [4] = assay: FLIPR membrane potential fluorescent dye assay in cultured human airway smooth muscle cells; format: cell-based; settings: for antagonism of THIP-induced fluorescent / membrane potential changes: picrotoxin 200 uM, THIP 500 uM and 1 mM
Experimental: as §1
To determine whether activation of GABAA receptors induces membrane potential changes in cultured human airway smooth muscle cells the FLIPR in vitro fluorescent dye assay (Molecular Devices) was used. Human airway smooth muscle cells (prepared as described in Reference Examples 1 and 2) were grown to 100% confluence in 96 well black-walled plates and were washed with warmed (37° C.) low chloride buffer (consisting of in mM: 160 sodium-D-gluconate, 4.5 potassium-D-gluconate, 2 CaCl2, 1 MgCl2, 10 D-glucose, and 10 Hepes pH 7.4) four times. A stock solution (100% dye) of FLIPR blue dye was prepared by reconstitution of 1 vial (125 mg) with 100 ml of the low chloride buffer (assay buffer). A 50% working stock was prepared by further diluting the reconstituted blue dye 1:1 with assay buffer and was used to load cells (90 ul/well) over 20 minutes at 37° C. All reagents were dissolved in assay buffer. Baseline fluorescence was measured for 3 min prior to the first control additions (assay buffer). Three minutes later, airway smooth muscle cells were exposed to varying concentrations of THIP (0-10 mM) to determine a dose response. The fluorescence produced by membrane potential change following solution additions was quantified after subtracting changes induced by assay buffer alone. For subsequent antagonist assays, the first solution injected was either assay buffer, vehicle control (0.05% DMSO final), or the GABAA receptor antagonist picrotoxin (200 uM final) followed THIP (either 0.5 or 1 mM).

[5] = system: Guinea pig tracheal rings; assay: Airway smooth muscle force in guinea pig ex vivo tracheal rings, Example 20; settings: added after acetylcholine EC50 contraction
Experimental: Male (400 g) Dunkin Hartley guinea pigs were anesthetized with 100 mg/kg pentobarbital. Trachea were removed and divided into 8 closed circular rings each comprised of 2 cartilagenous segments. Adventitia and epithelium were dissected off under a microscope. Closed rings were suspended in 2 ml Radnoti organ baths connected to a Grass FT03 force transducer under 1 g resting tension at 37° C. with bubbled oxygenation 95% O2/5% CO2 and allowed to equilibrate for 1 h at resting tension with buffer exchanges every 15 min. Continuous digital recording of airway smooth muscle contractile force was done with Biopac hardware connected to Acknowledge v 7.3.3 software. Preliminary contractile challenges with performed with acetylcholine dose responses (0.1 nM-100 uM) 3 times with buffer exchanges and resetting of resting tension between each dose response. The Guinea pig tracheal rings were contracted with acetylcholine (an EC50 concentration for each ring). Following stabilization of the contractile force, the GABAA α5 selective negative modulator or the GABAA non-selective antagonist gabazine was added to the buffer.

In the case of CNC(=O)c1ncn2c1[C@@H]1CCCN1C(=O)c1cc(OC)ccc1-2 [CM-D-45, N-methyl (S)-11,12,13,13a-tetrahydro-7-methoxy-9-oxo-9H-imidazo-[1,5-a]pyrrolo-[2,1-c][1,4]-benzodiazepine-1-carboxamide], the “functional selectivity among GABAAR α-subtypes (inward currents, agonist activity)” value [1] is reported as “selectivity bias in favor or α4 and α6-GABAAR”, the “relaxation of an acetylcholine induced contraction (percent of remaining tone)” value (murine tracheal rings) is reported as “relaxation of an acetylcholine (Ach) induced contraction in murine tracheal rings from wild-type but not GABAA α4 knockout mice” and the “muscle force, % of initial force remaining after substance P contraction” value (GP tracheal rings; 1 uM substance P contraction) is reported as 61.3% and 61.3±16.9%. The “muscle force, % of initial TEA-induced force remaining” value (GP tracheal rings; 10 mM TEA contraction) was 54.3% and 54.3±14.3% and the “membrane polarization, inward rectifying currents” value (human Jurkat E6-1 cells) was “hyperpolarizing membrane dose-response signals can be generated”.

With Oc1noc2c1CCNC2 [THIP] the mean evoked current (GABAA receptors [2]; 10 uM THIP, 11/12 arrays of 20 cells in whole cell configuration) was −670.4+27.6 pA, the EC50 (GABAA receptors [2]; THIP 0 to 300 uM, voltage clamped at −80 mV, read-out: EC50, current elicited in whole cell configuration) was ~15 µM and 15 µM and the “muscle force, % of initial acetylcholine-induced force” value ([3]; THIP (500 uM) plus isoproterenol, n=8) was 22.9 ±13.2%. For the same molecule, the “potentiation of isoproterenol-mediated relaxation” value [3] was “significantly potentiated the relaxant effects of isoproterenol” and the EC50 (GABAA receptors [4]; THIP 0 to 10 mM, low chloride buffer, n=12, read-out: EC50, change in relative fluorescence (membrane potential)) was 245 µM.

With CC(C)NCC(O)c1ccc(O)c(O)c1 (stereo not shown) [isoproterenol] the EC50 ([3]; isoproterenol after a single concentration of 200 uM taurine, n=7) was 2.4 nM, the EC50 ([3]; isoproterenol after a single concentration of 500 uM THIP, n=8) was 7.6 ± 0.5 nM and the EC50 ([3]; isoproterenol only (THIP experiment), n=8) was 32.8 nM. It also gave an EC50 ([3]; isoproterenol only (taurine experiment), n=6) of 15.8 nM, an EC50 ([3]; isoproterenol with 200 uM taurine subsequent to 200 μM gabazine pretreatment, n=7) of 4.7 nM and an EC50 ([3]; isoproterenol with 500 uM THIP subsequent to 500 μM gabazine pretreatment, n=8) of 11.8 ± 0.6 nM. For the same molecule, the “muscle force, % of initial acetylcholine-induced force” value ([3]; isoproterenol alone at low concentration, n=8) was 76.5±8.5%.

For NCCS(=O)(=O)O [taurine], the “potentiation of isoproterenol-mediated relaxation” value [3] was “potentiated isoproterenol-mediated relaxation”.

Work on COc1ccc2c(c1)C(=O)N1CCC[C@H]1c1c(C(=O)OC(C)C)ncn1-2 yielded a melting point of 215 to 217 °C.

With COCc1ncn2c1CN(C)C(=O)c1cc(Cl)ccc1-2 [PWZ-029] the “change in airway smooth muscle force” value [5] was “increase in force”.

With picrotoxin the “antagonism of THIP-induced fluorescent / membrane potential changes” value (GABAA receptors [4]) was “attenuation of THIP-induced fluorescent changes” and the “antagonism of THIP-induced fluorescent / membrane potential changes” value (GABAA receptors [4]; listed as Picrotoxin) was “antagonism of THIP mediated membrane potential changes persisted even under conditions of high dose THIP”.

In the case of COc1ccc(-c2ccc(=N)n(CCCC(=O)O)n2)cc1 [gabazine], the “attenuation of THIP induced whole cell currents” value (GABAA receptors [2]; gabazine with THIP 25 uM, −80 mV) is reported as “attenuation of the THIP-induced current; also recorded: attenuation of THIP induced whole cell currents”, the “reversal of agonist potentiation of isoproterenol-mediated relaxation” value ([3]; gabazine pretreatment 15 min prior to acetylcholine) is reported as “significantly reversed the THIP potentiation of isoproterenol-mediated relaxation; also recorded: significantly reversed the potentiation of isoproterenol-mediated relaxation provided by taurine” and the “muscle force, % of initial acetylcholine-induced force” value ([3]; gabazine pretreatment, then THIP plus isoproterenol, n=8) is reported as 53.1±11.4%.
